Format in all cases: functional, cell-based
Experiment [1] is described as follows: Cytotoxicity against human EC109 cells assessed as inhibition of proliferation after 72 hrs by MTT assay. The note with it: ECa-109, 72 h. A general note: Formazan colour is commonly taken as a measure of viable cells.
For the next experiment, the system named is MCF7. Description: Cytotoxicity against human MCF7 cells assessed as inhibition of proliferation after 72 hrs by MTT assay. The note with it: MCF7, 72 h.
The subject of another experiment is MGC-803. The experiment in a line: Cytotoxicity against human MGC803 cells assessed as inhibition of proliferation after 72 hrs by MTT assay. The note with it: MGC-803, 72 h.
Experiment [2] is described as follows: Cytotoxicity against mouse B16F10 cells assessed as inhibition of proliferation after 72 hrs by MTT assay. The note with it: B16-F10, 72 h.

Molecules are shown by their SMILES.

Drawing on ChEMBL document CHEMBL3351956, “Design and synthesis of novel 1,2,3-triazole-pyrimidine hybrids as potential anticancer agents” (Eur J Med Chem, 2014), this text covers IC50 for two compounds.

The IC50 is the point on the concentration scale where inhibition reaches its midpoint.

Consider `O=c1[nH]cc(F)c(=O)[nH]1` [FLUOROURACIL], for which the half-inhibitory concentration (IC50) in experiment [1] was 10.8 µM; with MCF7, 8.93 µM; in the experiment with MGC-803, 7.69 µM; in experiment [2] it was 870 nM.

As to `COc1ccc(Nc2nc(SCc3cn(Cc4ccccc4Cl)nn3)nc(-c3ccc(C(C)C)cc3)c2C#N)cc1`, the IC50 in experiment [1] was 3.58 µM; with MCF7 it was 10.2 µM; with MGC-803 it was more than 64 µM; in experiment [2], 2690 nM.
